PubChem BioAssay AID732 (Emory University Molecular Libraries Screening Center, 2007)
Calls of active or inactive are those of the source. The rule behind the calls is not given here.

Test system: in vivo angiogenesis, blood vessel count
Assay: angiogenesis inhibition in living animals, in vivo study, HTS (AID 732);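 note: zebrafish embryos dosed at one day post fertilization; 0% = reference inhibitor and 100% = plate mean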
Conditions: active compounds read low;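 tested at 30 µM in the well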

SMILES | vessel count % control
O=C(O)c1nn(Cc2ccc(Cl)cc2Cl)c2ccccc12 | 87.2% (inactive)
CC[C@@]1(O)C(=O)OCc2c1cc1n(c2=O)Cc2cc3ccccc3nc2-1 | 0% (inactive)
NC(N)=NCCC[C@H](N)C(=O)O | 94.3% (inactive)
Ic1ccccc1CNC1C2CCN(CC2)C1C(c1ccccc1)c1ccccc1 (stereo not given) | 103% (inactive)
CNCCC(Oc1ccc(C(F)(F)F)cc1)c1ccccc1 (stereo not given) | 74.2% (inactive)
